According to PubChem BioAssay (NCI):
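Values below derive from 48-hour exposures of cells grown in 96-well plates, with endpoints linearly interpolated between the two concentrations bracketing the appropriate inhibition level. GI50: concentration for 50% inhibition of growth. TGI is the concentration that stops growth completely.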

Experiments:
Assay in all cases: inhibition of tumour cell growth, NCI panel, 48 h
OVCAR-5 ovarian = tested on: OVCAR-5 ovarian
KM12 colon = tested on: KM12 colon
OVCAR-3 ovarian = tested on: OVCAR-3 ovarian
SN12C renal = tested on: SN12C renal
OVCAR-4 ovarian = tested on: OVCAR-4 ovarian
ACHN renal = tested on: ACHN renal
MDA-MB-231 breast = tested on: MDA-MB-231 breast
RXF 393 renal = tested on: RXF 393 renal
HCC-2998 colon = tested on: HCC-2998 colon
MCF7 breast = tested on: MCF7 breast

Structure (SMILES)	GI50 (OVCAR-5 ovarian)	TGI (OVCAR-5 ovarian)	GI50 (KM12 colon)	TGI (KM12 colon)	GI50 (OVCAR-3 ovarian)	TGI (OVCAR-3 ovarian)	GI50 (SN12C renal)	TGI (SN12C renal)	GI50 (OVCAR-4 ovarian)	TGI (OVCAR-4 ovarian)	GI50 (ACHN renal)	TGI (ACHN renal)	GI50 (MDA-MB-231 breast)	TGI (MDA-MB-231 breast)	GI50 (RXF 393 renal)	TGI (RXF 393 renal)	GI50 (HCC-2998 colon)	TGI (HCC-2998 colon)	GI50 (MCF7 breast)	TGI (MCF7 breast)
C#CCOC(=O)/C=C/C(=O)Oc1ccc2c(C)cc(=O)oc2c1	> 100 µM	> 100 µM	> 100 µM	> 100 µM	> 100 µM	> 100 µM	> 100 µM	> 100 µM	> 100 µM	> 100 µM	> 100 µM	> 100 µM	> 100 µM	> 100 µM	> 100 µM	> 100 µM	40.8 µM	> 100 µM	> 100 µM	> 100 µM
O=C(O)CCSC(=O)Nc1cccc2ccccc12		> 100 µM		> 100 µM		> 100 µM		> 100 µM		> 100 µM		> 100 µM				> 100 µM		> 100 µM		
C1C[OH+]CCNCC[OH+]CC[OH+]CCN1.N.[Cl-].[Pt+4]			29.5 µM	> 100 µM	89.1 µM	> 100 µM	> 100 µM	> 100 µM	> 100 µM	> 100 µM	42 µM	> 100 µM			22.8 µM	90.3 µM	54.1 µM	> 100 µM		
CC[C@H]1CCC/C=C/[C@@H]2C[C@H](O)C[C@H]2[C@H](O)/C=C/C(=O)O1	0.0464 µM	> 100 µM	0.0227 µM	0.0523 µM	0.0281 µM	0.104 µM	0.053 µM	> 100 µM	0.0361 µM		0.0443 µM	> 100 µM	0.0213 µM	0.0416 µM	0.016 µM	0.0379 µM			0.0266 µM	0.102 µM
CCN1C(=O)N(CC)C2C1NN=c1s/c(=C\c3ccc(C(F)(F)F)cc3)c(=O)n12 (stereo not drawn)	0.619 µM	> 43.8 µM	0.309 µM	> 34.9 µM	0.252 µM	0.635 µM	0.678 µM	20 µM	0.839 µM	> 74.5 µM	0.808 µM	30.5 µM	0.495 µM	8.84 µM			0.354 µM	11.6 µM	0.338 µM	> 40 µM
COc1cc2c(c(OC)c1OC)-c1c(c3ccc([N+](=O)[O-])cc3c(=O)n1CCCBr)C2=O	> 100 µM	> 100 µM	60.7 µM	> 100 µM	> 100 µM	> 100 µM	19.7 µM	> 100 µM					31.3 µM	> 100 µM	24.4 µM	> 100 µM	50.4 µM	> 100 µM	0.0551 µM	0.439 µM
NNc1nc2ccccc2o1		> 100 µM		> 100 µM				> 100 µM		> 100 µM		> 100 µM		> 100 µM		> 100 µM		> 100 µM		> 100 µM
CCc1[nH]nc(C(N)=O)c1N=NN(C)C				> 100 µM		> 100 µM		> 100 µM		> 100 µM		> 100 µM		> 100 µM		> 100 µM		> 100 µM		> 100 µM
O=C1c2cc3c(cc2-c2c1c1ccc(F)cc1c(=O)n2C[C@H](O)[C@H](O)[C@H](O)CO)OCO3	0.253 µM	0.866 µM			0.167 µM	0.431 µM	0.19 µM	0.792 µM	0.28 µM	34.9 µM			0.342 µM	6.18 µM	0.193 µM	0.502 µM			0.0259 µM	0.215 µM
COc1ccccc1NC(=O)C1=C(C)NC(C)=C(C(=O)Nc2ccccc2OC)C1c1ccccc1Cl		> 100 µM		> 100 µM		> 100 µM		> 100 µM		> 100 µM		> 100 µM						> 100 µM		
CC(=O)NCc1c(C(N)=O)ncn1Cc1ccccc1						> 100 µM		> 100 µM		> 100 µM		> 100 µM				> 100 µM		> 100 µM		
Cc1ccc2[nH]c(O)c(N=Nc3ccccc3[N+](=O)[O-])c2c1		> 84.3 µM		> 40.3 µM		99.6 µM		> 100 µM		6.18 µM				6.03 µM		20.8 µM		> 100 µM		> 100 µM
O=C(O)CN1C(=O)CN=C(c2ccccn2)c2cc(Cl)ccc21		> 100 µM		> 100 µM		> 100 µM		> 100 µM		> 100 µM		> 100 µM		> 100 µM		> 100 µM				> 100 µM
O=[N+]([O-])c1cc(I)cc(/C=N/NS(=O)(=O)c2ccc(Cl)cc2)c1O		71.6 µM		34.6 µM		36.1 µM		49.4 µM		85.6 µM		51.4 µM				45.4 µM		46.3 µM		
COc1ccc(-c2cc(=O)c3cc(C)c(C)c(C(=O)O)c3o2)cc1				> 100 µM		> 100 µM		> 100 µM		> 100 µM		94.4 µM				> 100 µM		> 100 µM		
CCOC(=O)CNC(=O)OCc1ccccc1		> 100 µM		> 100 µM		> 100 µM		> 100 µM				> 100 µM						> 100 µM		
O=C(Nc1ccccc1Cl)c1ccc(NC2=C(Cl)C(=O)N(C3CCCCC3)C2=O)cc1	49.5 µM	128 µM	16.9 µM	35.7 µM	9.25 µM	28.4 µM			25.1 µM	74.9 µM	10.6 µM	30.4 µM	13.7 µM	33.3 µM			3.55 µM	6.05 µM	9.82 µM	36 µM
OCCN(CCO)c1nc(N2CCCCC2)c2nc(N(CCO)CCO)nc(N3CCCCC3)c2n1		> 100 µM		> 100 µM		32.6 µM		> 100 µM		> 100 µM		> 100 µM		> 100 µM				36.4 µM		
O=C(C=Nc1ccccc1S)c1ccco1				31.3 µM		31.2 µM		21.5 µM		26.4 µM	> 100 µM	> 100 µM				29 µM	20.6 µM	36.6 µM		
COc1cc(/C=C2\NC(=O)C3Cc4c(OC)c(C)c(OC)c(OC)c4C2N3C)c(OC)c(C)c1OC (stereo not drawn)		> 100 µM		> 100 µM		> 100 µM		> 100 µM		> 100 µM		> 100 µM				> 100 µM		> 100 µM		
